The target in one experiment is T1, human ETA receptors (Homo sapiens, UniProt P25101).
T1 construct: endogenous in cells; host or cells: TE 671 cells (ATCC HTB 139)
T1 sequence (P25101 21-427): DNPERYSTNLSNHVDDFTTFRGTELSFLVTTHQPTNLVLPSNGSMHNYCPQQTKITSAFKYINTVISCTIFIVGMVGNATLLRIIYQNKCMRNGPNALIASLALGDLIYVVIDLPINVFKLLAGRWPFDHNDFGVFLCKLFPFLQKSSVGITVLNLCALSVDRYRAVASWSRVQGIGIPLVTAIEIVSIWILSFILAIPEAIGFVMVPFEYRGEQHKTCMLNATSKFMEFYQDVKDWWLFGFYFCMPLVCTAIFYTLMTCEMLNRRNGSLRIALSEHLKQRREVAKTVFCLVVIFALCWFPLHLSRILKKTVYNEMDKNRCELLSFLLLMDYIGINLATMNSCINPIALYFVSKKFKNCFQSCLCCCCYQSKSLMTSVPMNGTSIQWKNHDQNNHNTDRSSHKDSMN
In words: Binding Test #1: inhibition of 125I-ET-1 binding to ETA receptors (TE 671 cell membranes). Particulars: read-out: ETA. The procedure, abridged:
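Radioligand competition in triplicate: ¹²⁵I-endothelin-1 displaced by test compound (1 nM–100 μM final) from ETA-bearing TE 671 cell membranes in HEPES pH 7.4 binding buffer with NaCl, MgCl2 and bacitracin. Incubation 16–18 h at 4 °C (or at 24 °C); 80 nM ET-1 defines nonspecific binding; pellet radioactivity gives percent inhibition.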

Another experiment concerns the target T2, human ETB receptor (Homo sapiens, UniProt P24530).
T2 construct: expressed in transfected cells; host or cells: COS7 cells
T2 sequence (P24530 27-442): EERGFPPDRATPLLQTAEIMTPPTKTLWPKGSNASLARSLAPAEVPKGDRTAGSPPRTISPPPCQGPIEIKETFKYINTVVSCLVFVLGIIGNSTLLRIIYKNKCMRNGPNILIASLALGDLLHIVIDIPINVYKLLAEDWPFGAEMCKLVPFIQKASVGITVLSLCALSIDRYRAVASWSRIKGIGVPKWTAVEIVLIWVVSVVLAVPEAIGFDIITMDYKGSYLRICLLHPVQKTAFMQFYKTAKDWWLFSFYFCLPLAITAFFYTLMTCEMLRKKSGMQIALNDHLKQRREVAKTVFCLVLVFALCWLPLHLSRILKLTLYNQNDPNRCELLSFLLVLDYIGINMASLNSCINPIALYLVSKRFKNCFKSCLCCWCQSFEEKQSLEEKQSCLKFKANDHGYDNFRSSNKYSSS
Nature of the experiment: Binding Test #2: inhibition of 125I-ET-1 binding to ETB receptors (transfected COS7 cell membranes). The essentials:
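Competition with 125I-ET-1 for binding to membranes from COS7 cells transfected with human ETB receptor, used at 1 μg/50 μl binding buffer. Membranes prepared in HEPES pH 7.4 with aprotinin, including a DNase/MnCl2 step at 37 °C for 30 min.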

The mark [1] stands for this setting: Table 1, incubation at 4° C., read-out: ETB.
Setting [2] is: Table 1, † incubation at 24° C.
[3] abbreviates: Table 1, † incubation at 24° C., read-out: ETB.
[4] abbreviates: Table 2, incubation at 4° C., read-out: ETB.

Like-named read-outs stand apart in the source and are kept apart here.

Take `Cc1noc(NS(=O)(=O)c2ccc(-c3ccc(C(C)C)cc3)s2)c1Br` [N-(4-bromo-3-methyl-5-isoxazolyl)-5-(4′-isopropylphenyl))thiophene-2-sulfonamide]: the IC50 at human ETA receptors (Table 1, incubation at 4° C.) amounted to 1600 nM; on human ETB receptor (setting [1]), 0.3 µM.
Taken in the same sequence, the figures for `CCCc1ccc(-c2ccc(S(=O)(=O)Nc3onc(C)c3Br)s2)cc1` [N-(4-bromo-3-methyl-5-isoxazolyl)-5-(4′-propylphenyl))thiophene-2-sulfonamide] were 5600 nM and 0.51 µM.
For `CCc1ccc(-c2ccc(S(=O)(=O)Nc3onc(C)c3Br)s2)s1` [N-(4-bromo-3-methyl-5-isoxazolyl)-5-(5-ethylthien-2-yl)thiophene-2-sulfonamide], the IC50 on human ETA receptors (setting [2]) was found to be 24000 nM; on human ETB receptor (setting [3]), 7.7 µM.
Regarding `Cc1noc(NS(=O)(=O)c2ccc(Sc3ccccc3)o2)c1Br` [N-(4-bromo-3-methyl-5-isoxazolyl)-5-(phenthio)furan-2-sulfonamide], the IC50 at human ETA receptors (Table 1, incubation at 4° C.) came to 5000 nM; on human ETB receptor (setting [1]), 7 µM.
`Cc1noc(NS(=O)(=O)c2ccc(-c3cc(C(F)(F)F)cc(C(F)(F)F)c3)s2)c1Br` [N-(4-bromo-3-methyl-5-isoxazolyl)-5-[3,5-bis(triflouromethyl)phenyl]thiophene-2-sulfonamide]: the IC50 at human ETA receptors (Table 1, incubation at 4° C.) is 794 nM; at human ETA receptors (setting [2]), 5900 nM; at human ETB receptor (setting [1]) it was 12 µM; on human ETB receptor (setting [3]), 15.5 µM.
In the same order, the values of `Cc1noc(NS(=O)(=O)c2ccc(-c3ccc(C(F)(F)F)cc3)s2)c1Br` [N-(4-bromo-3-methyl-5-isoxazolyl)-5-[4-(trifluoromethyl)phenyl]thiophene-2-sulfonamide] are 6390 nM, 6310 nM, 0.0835 µM and 0.282 µM.
For the compound `Cc1noc(NS(=O)(=O)c2ccc(Br)s2)c1Br` [N-(4-bromo-3-methyl-5-isoxazolyl)-5-bromothiophene-2-sulfonamide], the IC50 at human ETA receptors (Table 1, incubation at 4° C.) came out at 314 nM; at human ETB receptor (setting [1]) it was 2.26 µM.
As to `Cc1noc(NS(=O)(=O)c2ccc(-c3ccccc3)o2)c1Br` [N-(4-bromo-3-methyl-5-isoxazolyl)-5-phenylfuran-2-sulfonamide], the IC50 is 857 nM at human ETA receptors (Table 1, incubation at 4° C.) and 2.43 µM on human ETB receptor (setting [1]).
With `Cc1noc(NS(=O)(=O)c2ccc(-c3ccccc3)s2)c1Br` [N-(4-bromo-3-methyl-5-isoxazolyl)-5-phenylthiophene-2-sulfonamide], the IC50 came out at 3530 nM at human ETA receptors (Table 1, incubation at 4° C.); 36600 nM at human ETA receptors (setting [2]); 0.417 µM on human ETB receptor (setting [1]); 2.4 µM on human ETB receptor (setting [3]).
`Cc1noc(NS(=O)(=O)c2ccco2)c1Br` [N-(4-bromo-3-methyl-5-isoxazolyl)furan-2-sulfonamide]: the IC50 at human ETA receptors (Table 1, incubation at 4° C.) came out at 750 nM; on human ETB receptor (setting [1]), 88.1 µM.
Consider `Cc1noc(NS(=O)(=O)c2ccsc2)c1Br` [N-(4-bromo-3-methyl-5-isoxazolyl)thiophene-3-sulfonamide], for which the IC50 was 135 nM at human ETA receptors (Table 1, incubation at 4° C.) and 23.4 µM on human ETB receptor (setting [1]).
Consider `Cc1onc(NS(=O)(=O)c2ccc(-c3ccccc3)cc2)c1Br` [N-(4-bromo-5-methyl-3-isoxazolyl)-4-biphenylsulfonamide], for which the IC50 came to 6400 ± 2000 nM on human ETA receptors (Table 2, incubation at 4° C.); 49000 nM at human ETA receptors (Table 2, † incubation at 24° C.); 0.29 ± 0.02 µM on human ETB receptor (setting [4]); 1.78 µM on human ETB receptor (Table 2, † incubation at 24° C., read-out: ETB).
Turning to `Cc1onc(NS(=O)(=O)c2cccs2)c1Br` [N-(4-bromo-5-methyl-3-isoxazolyl)thiophene-2-sulfonamide], the IC50 came to 211 nM at human ETA receptors (Table 1, incubation at 4° C.) and 27.3 µM at human ETB receptor (setting [1]).
Regarding `Cc1cc(C)c(NC(=O)c2sccc2S(=O)(=O)Nc2onc(C)c2Cl)c(C)c1` [N-(4-chloro-3-methyl-5-isoxazolyl)-2-(2,4,6-trimethylphenylaminocarbonyl)thiophene-3-sulfonamide], the IC50 at human ETA receptors (setting [2]) was 0.626 nM; at human ETB receptor (setting [3]), 8.27 µM.
In the same order, the values of `Cc1ccc(CC(=O)c2sccc2S(=O)(=O)Nc2onc(C)c2Cl)c(C)c1` [N-(4-chloro-3-methyl-5-isoxazolyl)-2-(2,4-dimethylphenylacetyl)thiophene-3-sulfonamide] are 0.4 nM and 4.8 µM.
Taken in the same sequence, the figures for `COc1cc(NC(=O)c2sccc2S(=O)(=O)Nc2onc(C)c2Cl)c(C(N)=O)cc1OC` [N-(4-chloro-3-methyl-5-isoxazolyl)-2-(2-carboxamido-4,5-dimethoxyphenylaminocarbonyl)thiophene-3-sulfonamide] were 11 nM and 61 µM.
In the same order, the values of `CC(=O)OCc1c(C)cc(C)c(NC(=O)c2sccc2S(=O)(=O)Nc2onc(C)c2Cl)c1C` [N-(4-chloro-3-methyl-5-isoxazolyl)-2-(3-acetoxymethyl-2,4,6-trimethylphenylaminocarbonyl)thiophene-3-sulfonamide] are 0.6 nM and more than 100 µM.
Consider `Cc1cc(C)c(NC(=O)c2sccc2S(=O)(=O)Nc2onc(C)c2Cl)c(C)c1CC(=O)O` [N-(4-chloro-3-methyl-5-isoxazolyl)-2-(3-carboxymethyl-2,4,6-trimethylphenylaminocarbonyl)thiophene-3-sulfonamide], for which the figures for the IC50 on human ETA receptors (setting [2]) and at human ETB receptor (setting [3]) were 1.5 nM and more than 100 µM, respectively.
Take `Cc1noc(NS(=O)(=O)c2ccsc2C(=O)OCCc2ccc3c(c2)OCO3)c1Cl` [N-(4-chloro-3-methyl-5-isoxazolyl)-2-[2-(3,4-methylenedioxyphenyl)ethoxycarbonyl-3-sulfonamide]: the IC50 turned out to be 230 nM on human ETA receptors (setting [2]) and 6.2 µM at human ETB receptor (setting [3]).
For `COc1cc(C#N)c(NC(=O)c2sccc2S(=O)(=O)Nc2onc(C)c2Cl)c(OC)c1OC` [N-(4-chloro-3-methyl-5-isoxazolyl)-2-[(2,3,4-trimethoxy-6-cyano)phenylaminocarbonyl]thiophene-3-sulfonamide], the figures for the IC50 at human ETA receptors (setting [2]) and at human ETB receptor (setting [3]) were 0.169 nM and 12.5 µM, respectively.
Take `Cc1ccc(NC(=O)c2c(S(=O)(=O)Nc3onc(C)c3Cl)c3ccccc3n2C)cc1` [N-(4-chloro-3-methyl-5-isoxazolyl)-2-[(4-tolyl)aminocarbonyl]-1-methylindole-3-sulfonamide]: the results for the IC50 on human ETA receptors (setting [2]) and on human ETB receptor (setting [3]) were 31300 nM and 14.7 µM, respectively.
In the same order, the values of `Cc1noc(NS(=O)(=O)c2ccsc2CC2(c3ccc4c(c3)OCO4)OCCO2)c1Cl` [N-(4-chloro-3-methyl-5-isoxazolyl)-2-[β,β-(ethylenedioxy)-3,4-(methylenedioxy)phenethyl]thiophene-3-sulfonamide] are 128 nM and 2.09 µM.
With `Cc1noc(NS(=O)(=O)c2ccccc2-c2ccccc2)c1Cl` [N-(4-chloro-3-methyl-5-isoxazolyl)-2-biphenylsulfonamide], the IC50 at human ETA receptors (Table 2, incubation at 4° C.) was 1.23 nM; at human ETB receptor (setting [4]), approximately 14 µM.
For the compound `Cc1noc(NS(=O)(=O)c2cccc(-c3ccccc3)c2)c1Cl` [N-(4-chloro-3-methyl-5-isoxazolyl)-3-biphenylsulfonamide], the IC50 on human ETA receptors (Table 2, incubation at 4° C.) is more than 30 nM; on human ETB receptor (setting [4]), 0.793 µM; on human ETB receptor (read-out: IC50 for ETB receptors) it was approximately 0.793 µM.
Regarding `Cc1noc(NS(=O)(=O)c2ccc(-c3ccccc3)cc2)c1Cl` [N-(4-chloro-3-methyl-5-isoxazolyl)-4-biphenylsulfonamide], the IC50 at human ETA receptors (Table 2, incubation at 4° C.) was 4930 ± 3000 nM; at human ETB receptor (setting [4]), 0.29 ± 0.1 µM.
`CCc1ccc(-c2ccc(S(=O)(=O)Nc3onc(C)c3Cl)s2)s1` [N-(4-chloro-3-methyl-5-isoxazolyl)-5-(5-ethylthien-2-yl)thiophene-2-sulfonamide]: the IC50 at human ETA receptors (setting [2]) is 12000 nM; on human ETB receptor (setting [3]), 0.71 µM.
As to `COc1ccc2c(S(=O)(=O)Nc3onc(C)c3Cl)c(Cc3ccc4c(c3)OCO4)sc2c1` [N-(4-chloro-3-methyl-5-isoxazolyl)-6-methoxy-2-[3,4-(methylenedioxy)benzyl]benzo[b]thiophene-3-sulfonamide], the IC50 at human ETA receptors (setting [2]) was approximately 2000 nM; on human ETB receptor (setting [3]), 2.39 µM.
As for `Cc1noc(NS(=O)(=O)c2ccsc2C(=O)OC2CCCCC2)c1Cl` [N-(4-chloro-3-methyl-5-isoxozolyl-2-(cyclohexyloxycarbonyl)thiophene-3-sulfonamide], the values for the IC50 at human ETA receptors (setting [2]) and on human ETB receptor (setting [3]) were 440 nM and 34 µM, respectively.

The values above are taken from patent publication US6683103B2, “Sulfonamides for treatment of endothelin-mediated disorders” (Texas Biotechnology Corporation, priority 1997, dated 2004).
